Test results as given in patent US12643867B2, “Compositions and uses thereof” (University of Virginia Patent Foundation, priority 2017, dated 2026).

Key:
Assay in all cases: SILAC LC-MS ATP acyl phosphate probe competition, native kinases in HEK293T
Type in all cases: binding
[1] = biological target: T1, STK38 (Serine/threonine-protein kinase 38) (Homo sapiens, UniProt Q15208); conditions: site Lys1; ATP 1 mM; Ketanserin, Ritanserin 100 μM; RF001 1 mM
T1 construct: Native kinases; endogenous in cells; host or cells: HEK293T soluble proteome
T1 sequence (Q15208 whole entry): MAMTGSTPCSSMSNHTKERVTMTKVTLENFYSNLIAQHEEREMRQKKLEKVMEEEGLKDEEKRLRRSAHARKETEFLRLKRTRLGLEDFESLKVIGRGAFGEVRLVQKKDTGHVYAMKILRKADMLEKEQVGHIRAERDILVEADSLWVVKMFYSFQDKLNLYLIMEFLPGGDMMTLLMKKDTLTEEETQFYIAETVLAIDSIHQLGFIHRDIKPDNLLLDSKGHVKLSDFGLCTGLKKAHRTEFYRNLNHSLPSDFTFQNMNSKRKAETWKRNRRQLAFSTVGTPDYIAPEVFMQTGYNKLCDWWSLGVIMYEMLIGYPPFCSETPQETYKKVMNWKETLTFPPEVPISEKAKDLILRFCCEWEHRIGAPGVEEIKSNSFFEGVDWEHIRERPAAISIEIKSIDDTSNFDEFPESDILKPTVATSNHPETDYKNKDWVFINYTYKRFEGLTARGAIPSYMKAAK
Method in brief: (§1)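 HEK293T SILAC proteomes, 2 mg/ml; heavy + compound (from 50× DMSO stock), light + DMSO, 30 min, 25° C. Mix 1:1, MeOH/CHCl3 extraction, DTT/iodoacetamide, trypsin/Lys-C 3 h 37° C. Avidin enrichment of desthiobiotin-modified peptides; Orbitrap Q Exactive Plus LC-MS, top-10 DDA.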

[2] = biological target: T2, M4K5 (Mitogen-activated protein kinase kinase kinase kinase 5) (Homo sapiens, UniProt Q9Y4K4); conditions: ATP 1 mM, Ketanserin, Ritanserin 100 μM, RF001 1 mM; for SILAC ratio, M4K5 Lys1 probe-modified peptide: site Lys1; for SILAC ratio, M4K5 Lys2 probe-modified peptide: site Lys2
T2 construct: Native kinases; endogenous in cells; host or cells: HEK293T soluble proteome
T2 sequence (Q9Y4K4 whole entry): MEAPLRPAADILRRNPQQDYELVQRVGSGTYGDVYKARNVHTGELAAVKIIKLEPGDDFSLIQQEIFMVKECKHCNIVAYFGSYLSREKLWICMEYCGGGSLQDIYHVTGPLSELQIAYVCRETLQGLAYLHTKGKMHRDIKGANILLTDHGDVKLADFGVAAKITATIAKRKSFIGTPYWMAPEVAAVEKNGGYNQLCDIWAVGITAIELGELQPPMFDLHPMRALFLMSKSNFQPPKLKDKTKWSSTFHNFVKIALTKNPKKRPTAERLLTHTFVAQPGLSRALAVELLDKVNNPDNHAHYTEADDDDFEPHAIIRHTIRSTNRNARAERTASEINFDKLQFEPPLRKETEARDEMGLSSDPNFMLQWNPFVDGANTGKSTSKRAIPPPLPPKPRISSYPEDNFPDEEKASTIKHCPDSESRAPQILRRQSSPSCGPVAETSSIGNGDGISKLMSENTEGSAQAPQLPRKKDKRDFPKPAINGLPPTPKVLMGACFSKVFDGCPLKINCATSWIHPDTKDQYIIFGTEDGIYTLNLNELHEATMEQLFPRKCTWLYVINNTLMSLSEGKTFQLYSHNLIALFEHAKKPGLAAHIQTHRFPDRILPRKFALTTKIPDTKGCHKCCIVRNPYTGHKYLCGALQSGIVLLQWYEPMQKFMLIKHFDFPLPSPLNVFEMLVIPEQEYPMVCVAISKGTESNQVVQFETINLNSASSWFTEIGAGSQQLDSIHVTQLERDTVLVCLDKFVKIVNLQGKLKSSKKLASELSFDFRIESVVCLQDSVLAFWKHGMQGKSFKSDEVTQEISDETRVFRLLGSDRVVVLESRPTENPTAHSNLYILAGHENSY
Method in brief: as §1

[3] = biological target: T3, ULK3 (Unc-51-like kinase 3) (Homo sapiens, UniProt Q6PHR2); conditions: site Lys1; ATP 1 mM; Ketanserin, Ritanserin 100 μM; RF001 1 mM
T3 construct: Native kinases; endogenous in cells; host or cells: HEK293T soluble proteome
T3 sequence (Q6PHR2 1-472): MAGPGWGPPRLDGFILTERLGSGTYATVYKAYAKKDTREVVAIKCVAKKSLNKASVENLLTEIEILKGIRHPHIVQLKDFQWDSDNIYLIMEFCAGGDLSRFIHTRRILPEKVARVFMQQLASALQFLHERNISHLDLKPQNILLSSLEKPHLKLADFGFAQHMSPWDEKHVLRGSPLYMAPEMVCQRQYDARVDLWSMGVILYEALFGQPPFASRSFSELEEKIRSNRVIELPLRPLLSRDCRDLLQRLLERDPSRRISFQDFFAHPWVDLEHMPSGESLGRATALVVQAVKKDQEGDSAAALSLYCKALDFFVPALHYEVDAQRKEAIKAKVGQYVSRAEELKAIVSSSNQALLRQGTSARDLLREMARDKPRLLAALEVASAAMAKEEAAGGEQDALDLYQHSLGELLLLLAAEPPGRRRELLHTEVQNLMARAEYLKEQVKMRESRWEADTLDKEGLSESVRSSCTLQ
Method in brief: as §1

[4] = biological target: T4, SLK (CTCL tumor antigen se20-9) (Homo sapiens, UniProt Q9H2G2); conditions: site Lys2; ATP 1 mM; Ketanserin, Ritanserin 100 μM; RF001 1 mM
T4 construct: Native kinases; endogenous in cells; host or cells: HEK293T soluble proteome
T4 sequence (Q9H2G2 whole entry): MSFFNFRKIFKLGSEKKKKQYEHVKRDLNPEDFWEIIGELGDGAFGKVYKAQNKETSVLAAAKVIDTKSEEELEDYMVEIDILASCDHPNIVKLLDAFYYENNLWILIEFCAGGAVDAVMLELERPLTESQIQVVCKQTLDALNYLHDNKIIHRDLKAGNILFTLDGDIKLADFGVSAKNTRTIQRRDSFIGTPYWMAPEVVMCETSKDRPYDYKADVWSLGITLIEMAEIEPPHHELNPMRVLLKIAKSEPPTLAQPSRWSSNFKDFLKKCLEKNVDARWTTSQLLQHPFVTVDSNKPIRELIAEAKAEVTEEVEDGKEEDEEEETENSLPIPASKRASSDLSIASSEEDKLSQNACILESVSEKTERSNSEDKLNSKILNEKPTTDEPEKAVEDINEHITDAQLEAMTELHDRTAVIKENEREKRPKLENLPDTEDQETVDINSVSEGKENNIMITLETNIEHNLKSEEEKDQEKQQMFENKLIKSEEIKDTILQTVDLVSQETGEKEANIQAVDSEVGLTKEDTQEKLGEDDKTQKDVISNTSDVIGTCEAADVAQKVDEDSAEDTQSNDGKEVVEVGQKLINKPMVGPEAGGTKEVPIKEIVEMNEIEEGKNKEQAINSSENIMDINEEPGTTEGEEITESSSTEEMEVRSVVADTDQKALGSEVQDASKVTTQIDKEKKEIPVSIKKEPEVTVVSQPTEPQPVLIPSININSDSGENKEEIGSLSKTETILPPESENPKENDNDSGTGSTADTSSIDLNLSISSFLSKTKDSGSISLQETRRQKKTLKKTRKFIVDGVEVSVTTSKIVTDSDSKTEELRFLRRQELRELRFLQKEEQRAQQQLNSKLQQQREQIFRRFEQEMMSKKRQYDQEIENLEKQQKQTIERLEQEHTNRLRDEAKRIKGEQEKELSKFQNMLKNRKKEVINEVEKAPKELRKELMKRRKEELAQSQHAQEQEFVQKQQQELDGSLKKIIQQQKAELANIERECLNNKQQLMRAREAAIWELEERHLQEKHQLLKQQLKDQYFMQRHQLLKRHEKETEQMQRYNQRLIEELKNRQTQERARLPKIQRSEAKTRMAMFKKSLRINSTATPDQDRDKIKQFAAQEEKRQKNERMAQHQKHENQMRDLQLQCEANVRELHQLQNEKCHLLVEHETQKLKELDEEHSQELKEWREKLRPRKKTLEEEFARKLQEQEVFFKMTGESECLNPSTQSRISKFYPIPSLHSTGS
Method in brief: as §1

[5] = biological target: T5, CDK1 (Cell division control protein 2 homolog) (Homo sapiens, UniProt P06493); conditions: site Lys2; ATP 1 mM; Ketanserin, Ritanserin 100 μM; RF001 1 mM
T5 construct: measured against >50 native kinases quantified in HEK293T soluble proteomes; endogenous in cells; host or cells: HEK293T soluble proteome
T5 sequence (P06493 whole entry): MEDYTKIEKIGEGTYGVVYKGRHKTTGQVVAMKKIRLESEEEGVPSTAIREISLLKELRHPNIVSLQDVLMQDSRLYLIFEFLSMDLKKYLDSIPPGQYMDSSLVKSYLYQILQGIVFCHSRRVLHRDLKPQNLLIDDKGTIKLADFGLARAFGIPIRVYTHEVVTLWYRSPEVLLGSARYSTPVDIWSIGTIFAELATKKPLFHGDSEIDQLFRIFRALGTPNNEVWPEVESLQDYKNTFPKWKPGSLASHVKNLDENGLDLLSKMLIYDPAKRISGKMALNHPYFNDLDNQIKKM
Method in brief: as §1

SILAC ratio, STK38 probe-modified peptide [1]	SILAC ratio, M4K5 Lys1 probe-modified peptide [2]	SILAC ratio, M4K5 Lys2 probe-modified peptide [2]	SILAC ratio, ULK3 probe-modified peptide [3]	SILAC ratio, SLK probe-modified peptide [4]	SILAC ratio, CDK1 probe-modified peptide [5]	Compound
1.4	0.9	1.3	1.4	1.5	1.1	Fc1ccc(C(=C2CCNCC2)c2ccc(F)cc2)cc1 [RF001, 4-(Bis(4-fluorophenyl)methylene) piperidine]
1.3	1.3	1.3	2.3	1.3	1.4	O=C(c1ccc(F)cc1)C1CCN(CCn2c(=O)[nH]c3ccccc3c2=O)CC1 [Ketanserin]

Compound	SILAC ratio, STK38 probe-modified peptide [1]	SILAC ratio, M4K5 Lys1 probe-modified peptide [2]	SILAC ratio, M4K5 Lys2 probe-modified peptide [2]	SILAC ratio, ULK3 probe-modified peptide [3]	SILAC ratio, SLK probe-modified peptide [4]	SILAC ratio, CDK1 probe-modified peptide [5]
Cc1nc2sccn2c(=O)c1CCN1CCC(=C(c2ccc(F)cc2)c2ccc(F)cc2)CC1 [Ritanserin]	2.0	2.4	1.9	1.8	3.0	2.4
